Test results taken from PubChem BioAssay AID248 (DTP/NCI, 2004).
Inconclusive results and toxic doses are left out. Cut-off read from the data, not from the text of the source: active = T/C of 150% or more; inactive = T/C below 125%.

Test system: L1210 leukemia ip in BDF1 mice, survival T/C
Assay: NCI In Vivo Anticancer Drug Screen. Data for tumor model L1210 Leukemia (intraperitoneal) in B6D2F1 (BDF1) mice
Settings: endpoint: mean survival time, higher = longer survival
Method in brief: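 Read-out is survival time, reported as the treated-group measurement over the vehicle-control measurement.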

[1] = dose: 100.0 mg/kg/injection, schedule: Q01DX009 (ip), vehicle: saline with Tween-80
[2] = dose: 100.0 mg/kg/injection, schedule: Q04DX003 (ip), vehicle: saline with Tween-80
[3] = dose: 200.0 mg/kg/injection, schedule: Q01DX009 (ip), vehicle: saline with Tween-80
[4] = dose: 200.0 mg/kg/injection, schedule: Q04DX003 (ip), vehicle: saline with Tween-80
[5] = dose: 400.0 mg/kg/injection, schedule: Q04DX003 (ip), vehicle: saline with Tween-80
[6] = dose: 100.0 mg/kg/injection, schedule: Q01DX001 (ip), vehicle: Klucel (hydroxypropylcellulose) (HPC)
[7] = dose: 200.0 mg/kg/injection, schedule: Q01DX001 (ip), vehicle: Klucel (hydroxypropylcellulose) (HPC)
[8] = dose: 400.0 mg/kg/injection, schedule: Q01DX001 (ip), vehicle: Klucel (hydroxypropylcellulose) (HPC)
[9] = dose: 100.0 mg/kg/injection, schedule: Q01DX009 (ip), vehicle: Klucel (hydroxypropylcellulose) (HPC)
[10] = dose: 200.0 mg/kg/injection, schedule: Q01DX009 (ip), vehicle: Klucel (hydroxypropylcellulose) (HPC)
[11] = dose: 100.0 mg/kg/injection, schedule: Q01DX001 (ip), vehicle: saline
[12] = dose: 200.0 mg/kg/injection, schedule: Q01DX001 (ip), vehicle: saline
[13] = dose: 400.0 mg/kg/injection, schedule: Q01DX001 (ip), vehicle: saline
[14] = dose: 100.0 mg/kg/injection, schedule: Q04DX003 (ip), vehicle: Klucel (hydroxypropylcellulose) (HPC)
[15] = dose: 200.0 mg/kg/injection, schedule: Q04DX003 (ip), vehicle: Klucel (hydroxypropylcellulose) (HPC)
[16] = dose: 100.0 mg/kg/injection, schedule: Q01DX009 (ip), vehicle: saline
[17] = dose: 50.0 mg/kg/injection, schedule: Q01DX001 (ip), vehicle: saline
[18] = dose: 25.0 mg/kg/injection, schedule: Q04DX003 (ip), vehicle: saline with Tween-80

Measured: T/C

Cc1ccc(S(=O)(=O)N/N=C/c2ccccc2C)cc1
inactive: [1] 105 % of control | [2] 98 % of control | [3] 100 % of control | [4] 95 % of control | dose: 400.0 mg/kg/injection, schedule: Q01DX009 (ip), vehicle: saline with Tween-80 97 % of control | [5] 95 % of control

CC(SC(C)c1ccccc1)c1ccccc1 (centres undefined)
inactive: [1] 93 % of control | [2] 101 % of control | [3] 91 % of control | [4] 106 % of control | [5] 97 % of control

COc1ccc(N=CC(=O)c2ccc(C)cc2)c([N+](=O)[O-])c1
inactive: [6] 107 % of control | [7] 104 % of control | [8] 95 % of control

CC(C)(C)NC(=O)Nc1cccc(C(=O)O)c1
inactive: [9] 97 % of control | [10] 109 % of control | dose: 400.0 mg/kg/injection, schedule: Q01DX009 (ip), vehicle: Klucel (hydroxypropylcellulose) (HPC) 101 % of control

O=C1Nc2ccccc2C1O (centres undefined)
inactive: [11] 101 % of control | [12] 101 % of control | [13] 108 % of control

CCOC(Cn1ccc(=O)[nH]c1=O)OCC
inactive: dose: 100.0 mg/kg/injection, schedule: Q04DX003 (ip), vehicle: saline sonified 109 % of control | dose: 200.0 mg/kg/injection, schedule: Q04DX003 (ip), vehicle: saline sonified 96 % of control | dose: 400.0 mg/kg/injection, schedule: Q04DX003 (ip), vehicle: saline sonified 105 % of control

O=C(O)CCC(NC(=O)OCc1ccccc1)C(=O)OCc1ccccc1 (centres undefined)
inactive: dose: 50.0 mg/kg/injection, schedule: Q01DX009 (ip), vehicle: Klucel (hydroxypropylcellulose) (HPC) 101 % of control | [9] 103 % of control | [14] 101 % of control | [10] 90 % of control | [15] 105 % of control

COc1cc2c(cc1O)CCCC2=O
inactive: dose: 50.0 mg/kg/injection, schedule: Q01DX009 (ip), vehicle: saline with Tween-80 96 % of control | [1] 93 % of control | [3] 96 % of control

Cc1sc(-c2ccccc2)nc1-c1ccc(N=Cc2ccc(N(CCCl)CCCl)cc2)cc1
inactive: dose: 100.0 mg/kg/injection, schedule: Q01DX001 (ip), vehicle: carboxymethylcellulose (CMC) 101 % of control | dose: 200.0 mg/kg/injection, schedule: Q01DX001 (ip), vehicle: carboxymethylcellulose (CMC) 101 % of control | dose: 400.0 mg/kg/injection, schedule: Q01DX001 (ip), vehicle: carboxymethylcellulose (CMC) 106 % of control

COc1ccc2c(c1)NCc1c(Br)cc(Br)cc1C2=O
inactive: [16] 94 % of control | dose: 200.0 mg/kg/injection, schedule: Q01DX009 (ip), vehicle: saline 93 % of control | dose: 400.0 mg/kg/injection, schedule: Q01DX009 (ip), vehicle: saline 91 % of control

O=C(C(F)(F)F)C(F)(F)F
inactive: dose: 6.25 mg/kg/injection, schedule: Q01DX009 (ip), vehicle: saline 95 % of control | dose: 12.5 mg/kg/injection, schedule: Q01DX009 (ip), vehicle: saline 98 % of control | dose: 25.0 mg/kg/injection, schedule: Q01DX009 (ip), vehicle: saline 114 % of control | [16] 88 % of control

c1ccc(-c2cc3ccccc3[nH]2)cc1
inactive: [6] 98 % of control | [7] 96 % of control | [10] 94 % of control | [8] 102 % of control

CN(C)C(=S)S
inactive: [17] 100 % of control | dose: 50.0 mg/kg/injection, schedule: Q04DX002 (ip), vehicle: Klucel (hydroxypropylcellulose) (HPC) 103 % of control | [11] 100 % of control | dose: 100.0 mg/kg/injection, schedule: Q04DX002 (ip), vehicle: Klucel (hydroxypropylcellulose) (HPC) 103 % of control | [12] 100 % of control | dose: 200.0 mg/kg/injection, schedule: Q04DX002 (ip), vehicle: Klucel (hydroxypropylcellulose) (HPC) 100 % of control | [13] 100 % of control | dose: 400.0 mg/kg/injection, schedule: Q04DX002 (ip), vehicle: Klucel (hydroxypropylcellulose) (HPC) 96 % of control

Cc1ccc(NC(=O)Oc2cc(=O)oc3ccccc23)c([N+](=O)[O-])c1
inactive: [14] 89 % of control | [15] 94 % of control | dose: 400.0 mg/kg/injection, schedule: Q04DX003 (ip), vehicle: Klucel (hydroxypropylcellulose) (HPC) 96 % of control

Nc1ccc(-c2ccc(-n3cccc3)cc2)cc1
inactive: dose: 25.0 mg/kg/injection, schedule: Q01DX001 (ip), vehicle: saline 100 % of control | [17] 96 % of control | [11] 109 % of control

CC(=O)NCCCCCCNC(C)=O
inactive: dose: 10.0 mg/kg/injection, schedule: Q01DX Z (ip), vehicle: saline 100 % of control | dose: 30.0 mg/kg/injection, schedule: Q01DX Z (ip), vehicle: saline 104 % of control | dose: 100.0 mg/kg/injection, schedule: Q01DX Z (ip), vehicle: saline 100 % of control | dose: 300.0 mg/kg/injection, schedule: Q01DX Z (ip), vehicle: saline 100 % of control

BrP(Nc1cccc(NP(Br)(c2ccccc2)(c2ccccc2)c2ccccc2)c1)(c1ccccc1)(c1ccccc1)c1ccccc1
inactive: dose: 10.0 mg/kg/injection, schedule: Q01DX001 (ip), vehicle: saline 99 % of control | dose: 20.0 mg/kg/injection, schedule: Q01DX001 (ip), vehicle: saline 99 % of control

c1ccc(CCN2COc3c(ccc4cccnc34)C2)cc1
inactive: [2] 102 % of control | [5] 90 % of control

CN(C)S(=O)(=O)Oc1cccc([N+](=O)[O-])c1
inactive: [18] 100 % of control | dose: 50.0 mg/kg/injection, schedule: Q04DX003 (ip), vehicle: saline with Tween-80 104 % of control | [2] 100 % of control

CC1(c2ccccc2)CC(c2ccccc2)=C(C#N)C(=O)N1 (centres undefined)
inactive: [11] 98 % of control | [12] 91 % of control | [13] 104 % of control

COc1ccc2c(c1OC)C1(CCN(C)C#N)CCCCC1CC2 (centres undefined)
inactive: [6] 95 % of control | [7] 95 % of control | [8] 86 % of control

CC(=O)Oc1ccc(OC(C)=O)c2c1C1C=CC2C1
inactive: [11] 103 % of control | [12] 103 % of control | [13] 101 % of control

OC(CC(O)(C(F)(F)F)C(F)(F)F)c1cccc(C(F)(F)F)c1 (centres undefined)
inactive: dose: 100.0 mg/kg/injection, schedule: Q01DX009 (ip), vehicle: other 96 % of control | dose: 100.0 mg/kg/injection, schedule: Q04DX003 (ip), vehicle: other 101 % of control | dose: 200.0 mg/kg/injection, schedule: Q01DX009 (ip), vehicle: other 96 % of control | dose: 400.0 mg/kg/injection, schedule: Q01DX009 (ip), vehicle: other 96 % of control | dose: 400.0 mg/kg/injection, schedule: Q04DX003 (ip), vehicle: other 92 % of control

CCCCN(C)CC#N
inactive: dose: 6.25 mg/kg/injection, schedule: Q01DX009 (ip), vehicle: saline with Tween-80 102 % of control | dose: 12.5 mg/kg/injection, schedule: Q01DX009 (ip), vehicle: saline with Tween-80 96 % of control | dose: 12.5 mg/kg/injection, schedule: Q04DX003 (ip), vehicle: saline with Tween-80 94 % of control | dose: 25.0 mg/kg/injection, schedule: Q01DX009 (ip), vehicle: saline with Tween-80 104 % of control | [18] 94 % of control
